Results taken from EP0807435A2, “Indirect HMG-CoA-reductase inhibitor” (Sertürner Arzneimittel GmbH, priority 1996, dated 1997).

Legend:
[1] = tested on: kultivierten Rattenhepatocyten; assay: Incorporation of 14C-labelled acetate into the non-saponifiable neutral lipid fraction (cholesterol de novo synthesis); type: cell-based, Ratten
Procedure: Erfindungsgemäß wurde überraschenderweise an Hand von Messungen des Einbaus von ^14[…] in die Fraktion der nicht-verseifbaren neutralen Lipide von kultivierten Rattenhepatocyten nachgewiesen, daß Luteolin, seine Derivate und […] Verbindungen konzentrationsabhängig die Neusynthese von Cholesterin in […]. Bei Verwendung eines Luteolin-7-0-glucosid-[…] Kulturmedium in einer Konzentration zwischen 0,02 und 0,1 mg/ml […] (Plateau) von ca. 20% ein, ohne daß zytotoxische Wirkungen nachweisbar wären. Bei höheren Konzentrationen (bis 1 mg/ml) […] noch […] auf (maximal 85 %), ohne […] von 2 mg/ml einsetzen. Durch Ersatz des ^14[…] durch […] vor der Bildung von Mevalonat lag; Hemmwirkungen, die zu einer Verschiebung des Musters der Vorläufersterine des Cholesterin […]. Die Aktivität der HMG-CoA-Reduktase, des Schlüsselenzyms der Cholesterinsynthese, wird somit indirekt über […] oder […] des Enzyms gedrosselt.

[2] = rabbits, blood lipids raised by cholesterol diet (200 mg Cholesterin pro kg Körpergewicht über 60 Tage); Chem. Abstr. 76; cited from earlier work

| Compound | Neusynthese von Cholesterin in den Leberzellen ([1]; 14C-acetate incorporation, cultured rat hepatocytes) | lipidsenkende Wirkung im Tierversuch [2] | Hemmung der Cholesterinneusynthese ([1]; concentrations that are maximally achievable in artichoke leaf extract preparations) |
| --- | --- | --- | --- |
| O=c1cc(-c2ccc(O)c(O)c2)oc2cc(O)cc(O)c12 [Luteolin, 31,41,5-Tetrahydroxyflavon] | konzentrationsabhängig die Neusynthese von Cholesterin in den Leberzellen vermindern | lipidsenkende Wirkung |  |
| O=C(/C=C/c1ccc(O)c(O)c1)O[C@@H]1C[C@@](OC(=O)/C=C/c2ccc(O)c(O)c2)(C(=O)O)C[C@@H](O)[C@@H]1O [Cynarin, 1,5-Di-Caffeoyl-D-Chinasäure, reference compound] |  |  | keinerlei Hemmung |
| Luteolin-7-Glycosid |  | lipidsenkende Wirkung |  |
